According to paper PMC5789083, “Mechanisms driving the antibacterial and antibiofilm properties of Hp1404 and its analogue peptides against multidrug-resistant Pseudomonas aeruginosa” (Scientific Reports, 2018):
Where two headings read alike, the source gives them in different places. Where no end group is shown, it is not given here.

What was measured:
P. aeruginosa 27853 = format: cell-based, Pseudomonas aeruginosa
Experimental: (§1) We examined the activity of each peptide against both pseudomonas aeruginosa and multidrug-resistant strains. The minimal inhibitory concentrations (MICs) of peptides were determined using the broth micro-dilution assay as described previously. Briefly, bacterial strains were cultivated with shaking overnight at 37 °C. The next day, they were diluted to a density of 2 × 10^5 CFU/mL with growth medium. Peptides were serially diluted with 10 mM sodium phosphate buffer. 50 µL bacterial aliquots were mixed with an equal volume of peptide solution, and incubated at 37 °C for 18–24 h. Inhibition of bacterial growth was determined by measuring the absorbance at 600 nm using a Versa Max microplate reader (Molecular Devices, Sunnyvale, CA, USA). The test was performed in triplicate.
The effects of various cations on the antibacterial activities of the parental and analogue peptides against P. aeruginosa 27853 were evaluated as previously described. Bacteria was treated with peptides at a final concentration 25 µM in the presence of physiological salts such as NaCl (50 mM, 100 mM, and 150 mM), CaCl2 (1.25 mM, 2.5 mM, and 5 mM), or MgCl2 (0.5 mM, 1 mM, and 2 mM). The MIC values were determined as described above.

[1] = tested on: Pseudomonas aeruginosa and MRPA strains; assay: microbe, parasite or virus in culture; format: cell-based; details: broth micro-dilution, 37 °C, 18–24 h
Source text: Gram-negative (Pseudomonas aeruginosa ATCC 27853) bacterial strains were obtained from the ATCC (American Type Culture Collection; Manassas, VA, USA). Multidrug-resistant strains (Pseudomonas aeruginosa 138, 431, 434, 557, 559, 778, 1034, 1162, 3290, 3399, 3592, 3904, 4007, 4319, 4891, 5018, and 671973) were obtained from the Chonnam National University Hospital (Gwangju, South Korea).
as §1

HaCaT cells = assay: Cytotoxicity, MTT assay; format: cell-based, human; details: 50 µM, 24 h
Experimental: We used the MTT assay to evaluate the toxicity of the peptides toward human skin epithelial cells (HaCaT) as previously described. Briefly, HaCaT cells were seeded at a density of 2 × 10^4 cells per well in 96-well microtiter plates in Dulbecco’s modified Eagle’s medium (DMEM) containing 10% foetal bovine serum (FBS) at 37 °C under 5% CO2 atmosphere. The next day, peptides were added to each well at various final concentrations (higher concentration of 200 µM). After 24 h incubation, culture supernatants were removed. 0.5 mg/mL MTT was added to each well, and the plates were incubated for 4 h at 37 °C. The medium was replaced by dimethyl sulfoxide (DMSO) to dissolve the formazan crystals formed in the wells. The absorbance at 570 nm was measured using a Versa-Max microplate ELISA reader (Molecular Devices). The viability rate was calculated using the following formula: Cell viability (%) = (absorbance of treated sample)/(absorbance of control) × 100.

[2] = tested on: P. aeruginosa strains (biofilm formation); format: cell-based, Pseudomonas aeruginosa; details: 24 h, 37 °C, crystal violet OD595
Experimental: To evaluate the ability of bacterial strains to form biofilms either in the absence or presence of peptides, antibiotic-susceptible P. aeruginosa (ATCC 27853), and various strains of MDR P. aeruginosa were cultured in nutrient broth (NB). […]. The biofilms were fixed with 100% methanol for 15 min, stained with 0.1% crystal violet (CV) for 1 h, and rinsed three times with distilled water (dH2O). After the addition of 95% ethanol, biofilm mass was quantified by measuring OD at 595 nm using a Versa-Max microplate ELISA reader (Molecular Devices). Results were expressed as the percentage of biofilm formed with respect to the control. […] All experiments were performed at least in triplicate.

[3] = P. aeruginosa 138 (multidrug-resistant), triplicate
[4] = P. aeruginosa 431 (multidrug-resistant), triplicate
[5] = P. aeruginosa 434 (multidrug-resistant), triplicate
[6] = P. aeruginosa 557 (multidrug-resistant), triplicate
[7] = P. aeruginosa 559 (multidrug-resistant), triplicate
[8] = P. aeruginosa 778 (multidrug-resistant), triplicate
[9] = P. aeruginosa 1034 (multidrug-resistant), triplicate
[10] = P. aeruginosa 1162 (multidrug-resistant), triplicate
[11] = P. aeruginosa 3290 (multidrug-resistant), triplicate
[12] = P. aeruginosa 3399 (multidrug-resistant), triplicate
[13] = P. aeruginosa 3543 (multidrug-resistant), triplicate
[14] = P. aeruginosa 3592 (multidrug-resistant), triplicate
[15] = P. aeruginosa 3904 (multidrug-resistant), triplicate
[16] = P. aeruginosa 4007 (multidrug-resistant), triplicate
[17] = P. aeruginosa 4319 (multidrug-resistant), triplicate
[18] = P. aeruginosa 4891 (multidrug-resistant), triplicate
[19] = P. aeruginosa 5018 (multidrug-resistant), triplicate
[20] = P. aeruginosa 671973 (multidrug-resistant), triplicate
[21] = P. aeruginosa ATCC 27853, 2 × 10^5 CFU/mL, A600, triplicate
[22] = P. aeruginosa 27853, 5 × 10^5 CFU/mL, 0.2% glucose

Substance | MIC (P. aeruginosa 27853; CaCl2 1.25 mM) [µM] | MIC (P. aeruginosa 27853; CaCl2 2.5 mM) [µM] | MIC (P. aeruginosa 27853; CaCl2 5 mM) [µM] | MIC (P. aeruginosa 27853; MgCl2 0.5 mM) [µM] | MIC (P. aeruginosa 27853; MgCl2 1 mM) [µM] | MIC (P. aeruginosa 27853; MgCl2 2 mM) [µM] | MIC (P. aeruginosa 27853; NaCl 50 mM) [µM] | MIC (P. aeruginosa 27853; NaCl 100 mM) [µM] | MIC (P. aeruginosa 27853; NaCl 150 mM) [µM] | MIC [1, 3] [µM] | MIC [1, 4] [µM] | MIC [1, 5] [µM] | MIC [1, 6] [µM] | MIC [1, 7] [µM] | MIC [1, 8] [µM] | MIC [1, 9] [µM] | MIC [1, 10] [µM] | MIC [1, 11] [µM] | MIC [1, 12] [µM] | MIC [1, 13] [µM] | also measured
GILGKLWEGVKSIF-NH2 [Hp1404] | >25 | >25 | >25 | 25 | 25 | >25 | 25 | >25 | >25 | 12.5 | 12.5 | 12.5 | 6.25 | 25 | 12.5 | 6.25 | 12.5 | 12.5 | 6.25 | 6.25 | MIC [1, 14]: 6.25 µM; MIC [1, 15]: 6.25 µM; MIC [1, 16]: 25 µM; MIC [1, 17]: 12.5 µM; MIC [1, 18]: 6.25 µM; MIC [1, 19]: 12.5 µM; MIC [1, 20]: 3.13 µM; MIC [1, 21]: 12.5 µM; survival rate of HaCaT cells (HaCaT cells): 30%; MBIC ([2]; P. aeruginosa 434): 25 µM; MBIC ([2]; P. aeruginosa 559): 50 µM; MBIC ([2]; P. aeruginosa 778): 25 µM; MBIC ([2]; P. aeruginosa 1034): 25 µM; MBIC ([2]; P. aeruginosa 1162): 25 µM; MBIC ([2]; P. aeruginosa 3399): 12.5 µM; MBIC ([2]; P. aeruginosa 3543): 6.25 µM; MBIC ([2]; P. aeruginosa 4007): 25 µM; MBIC [2, 22]: 25 µM
ILKKLLKKVKKI-NH2 [Hp1404-T1e] | 6.25 | 12.5 | >25 | 3.13 | 3.13 | 12.5 | 6.25 | 6.25 | 12.5 | 6.25 | 3.13 | 3.13 | 3.13 | 6.25 | 1.56 | 1.56 | 1.56 | 6.25 | 0.78 | 12.5 | MIC [1, 14]: 1.56 µM; MIC [1, 15]: 3.13 µM; MIC [1, 16]: 3.13 µM; MIC [1, 17]: 3.13 µM; MIC [1, 18]: 1.56 µM; MIC [1, 19]: 1.56 µM; MIC [1, 20]: 1.56 µM; MIC [1, 21]: 1.56 µM; survival rate of HaCaT cells (HaCaT cells): 100%; MBIC ([2]; P. aeruginosa 434): 12.5 µM; MBIC ([2]; P. aeruginosa 559): 12.5 µM; MBIC ([2]; P. aeruginosa 778): 6.25 µM; MBIC ([2]; P. aeruginosa 1034): 6.25 µM; MBIC ([2]; P. aeruginosa 1162): 6.25 µM; MBIC ([2]; P. aeruginosa 3399): 12.5 µM; MBIC ([2]; P. aeruginosa 3543): 50 µM; MBIC ([2]; P. aeruginosa 4007): 12.5 µM; MBIC [2, 22]: 12.5 µM
